Source: patent US4495358A, “Antibiotic pyrrolomycin E” (Meiji Seika Kaisha, Ltd., priority 1981, dated 1985)
Converted amounts (≈) assume the structure as drawn.

Key:
[1] = system: Bacillus subtilis ATCC 6633; experiment: Minimum inhibitory concentration, agar dilution method; format: cell-based; conditions: ATCC6633
From the text: (§1) The physical and chemical properties and the minimum inhibitory concentration against various microorganisms as measured by agar dilution method of pyrrolomycin E as obtained by the above-described method are as follows: […]

[2] = system: Escherichia coli NIHJ JC-2; experiment: as above; format: cell-based; conditions: NIHJJC2
From the text: as §1

[3] = system: Escherichia coli W 3630 RGN823; experiment: as above; format: cell-based; conditions: W3630RGN823, read-out: Minimum Inhibitory Concentration
From the text: as §1

[4] = system: Klebsiella pneumoniae PCI-602; experiment: as above; format: cell-based; conditions: PCI602
From the text: as §1

Proteus vulgaris OX-19 = experiment: as above; format: cell-based; conditions: OX19
From the text: as §1

[5] = system: Pseudomonas aeruginosa IAM 1007; experiment: as above; format: cell-based; conditions: IAM1007
From the text: as §1

Salmonella typhi 0-901-W = experiment: as above; format: cell-based; conditions: Salmonella enterica, read-out: Minimum Inhibitory Concentration
From the text: as §1

[6] = system: Serratia marcescens No. 1; experiment: as above; format: cell-based
From the text: as §1

[7] = system: Staphylococcus aureus FDA209PJC-1; experiment: as above; format: cell-based; conditions: FDA209PJC1
From the text: as §1

[8] = system: Staphylococcus aureus Smith; experiment: as above; format: cell-based
From the text: as §1

[9] = system: Staphylococcus epidermidis ATCC 14990; experiment: as above; format: cell-based; conditions: ATCC14990
From the text: as §1

Solubility = format: physicochemical
[10] = Nature of the substance (acidity); format: physicochemical
mice = conditions: mouse, in vivo, ip, 10 mg/kg

Which results are given for `O=[N+]([O-])c1cc(Cl)[nH]c1-c1cc(Cl)cc(Cl)c1O` [pyrrolomycin E]?
MIC [1]: 0.025 µg/mL (≈ 0.0813 µM); MIC [2]: > 100 µg/mL; MIC [3]: 12.5 µg/mL (≈ 40.6 µM); MIC [4]: > 100 µg/mL; MIC (Proteus vulgaris OX-19): 6.25 µg/mL (≈ 20.3 µM); MIC [5]: > 100 µg/mL; MIC (Salmonella typhi 0-901-W): > 100 µg/mL; MIC [6]: > 100 µg/mL; MIC [7]: 1.56 µg/mL (≈ 5.07 µM); MIC [8]: 1.56 µg/mL (≈ 5.07 µM); MIC [9]: 1.56 µg/mL (≈ 5.07 µM); Solubility (Solubility; acetone): Soluble; Solubility (Solubility; ethyl acetate): Soluble; Solubility (Solubility; methanol): Soluble; Solubility (Solubility; n-hexane): sparingly soluble; Solubility (Solubility; water): sparingly soluble; acidity of the substance [10]: Weak acidic substance; acute toxicity (survival) (mice): All mice survived
